US8076142B2, “Rooted plant assay system” (BASF Plant Sciences GmbH, priority 2006, dated 2011)

Tested on: soybean explants
Test: Auxin effect on transformation efficiency in soybean explants (disarmed A. rhizogenes, root induction and selection medium)
Type: cell-based
Settings: for transformation efficiency compared to control with no auxin: cotyledons from William 82 as explants
Method: Clean soybean seeds from soybean cultivar were sterilized in a chamber with chlorine gas produced by adding 3.5 ml 12N HCl drop wise into 100 ml bleach. All operations were conducted in a fume hood. After 24 hours in the chamber, seeds were removed and used immediately or stored at room temperature until use. Discolored seeds or cracked seeds were removed. To imbibe seeds, warm GM medium was poured around seeds until the seeds were entirely covered by the medium. Seedlings were grown in the light for 5-7 days until the epicotyl was extended beyond the cotyledons. Seedlings can be stored at 4° C. overnight before being used in transformation. The Germination Medium (GM) comprises: 1×B5 salts and vitamins, 1×MS iron stock, 2% sucrose, and 0.8% Noble agar at pH 5.8. As an alternative, soybean seeds can be germinated in 1% agar (50 ml) in Petri dishes for 7 days before Agrobacterium inoculation.
Three days before inoculation, a disarmed Agrobacterium culture, for example, the disarmed A. rhizogenes strain K599 liquid culture, was placed in 5 ml LB+Kan50 (containing 50 ug/ml Kanamycin) media in a 28° C. shaker (225 rpm) overnight. The next day, 1 ml of the culture was taken and spread onto an LB+Kan50 agar plate. The plates were incubated in a 28° C. incubator for two days. At the end of the two-day period the plates were covered with thick colonies. One plate was prepared for every 50 explants to be inoculated.
Soybean seedlings had elongated hypocotyls approximately 3 to 5 cm in length with visible epicotyls. The explants were then prepared by removing the epicotyls and part of the hypocotyls. The explant contained one or two cotyledons, an axillary meristem and the hypocotyl about 0.5 cm to about 3 cm in length. The seed coat was removed to facilitate cotyledon development. The cut end of the hypocotyl was the target for transformation/infection.
Alternatively, cotyledons containing the proximal end from its connection with the seedlings were used as another type of explant for transformation. The cut end was the target for Agrobacterium inoculation.
After the explants were cut off the seedlings, the cut end was immediately dipped onto the disarmed thick A. rhizogenes colonies prepared above so that the colonies were visible on the cut end. Alternatively, the explants can be immersed in the disarmed A. rhizogenes liquid culture for 30 minutes. The explants were then placed onto 1% agar in Petri dishes for co-cultivation. Approximately 10 explants were placed in one dish. The dishes were sealed with Saran wrap and co-cultured at 25-27° C. under light for 6-8 days.
After the transformation and co-cultivation step, soybean explants were transferred to rooting induction medium with a selection agent, for example, S-B5-605 or S-B5-607 for Bar gene selection (De Block et al., EMBO J. 6:2513-2518, 1987), or S-B5-708 for an AHAS mutant gene (Sathasivan et al., Plant Phys. 97:1044-50, 1991) selection, in Petri dishes. The cut end was inserted into the medium so that the callus developed from the cut end in the future was just below the medium surface. Six to nine explants were placed in each Petri dish. Cultures were maintained in the same condition as in the co-cultivation step.
The S-B5-605 medium comprises: 0.5×B5 salts, 3 mM MES, 2% sucrose, 1×B5 vitamins, 400 μg/ml Timentin, 0.8% Noble agar, 1 mg/1 IBA and 3 μg/ml Glufosinate Ammonion (selection agent for Bar gene) at pH 5.8. The S-MS-607 medium comprises: 0.2×MS salts and B5 vitamins, 2% sucrose, 400 mg/l Timentin, and 3 mg/L Glufosinate Ammonium at pH5.8. The S-B5-708 medium comprises: 0.5×B5 salts, 3 mM MES, 2% sucrose, 1×B5 vitamins, 400 μg/ml Timentin, 0.8% Noble agar, and 1 μM Imazapyr (selection agent for AHAS gene) (BASF Corporation, Florham Park, N.J.) at pH5.8.
Two to three weeks after the selection and root induction, transformed roots were formed on the cut ends of the explants. […]

Row | SMILES | transgenic roots obtained from hypocotyl explants (control, 0-1 mg/l IBA in the rooting induction and selection medium) | transformation efficiency compared to control with no auxin (3 mg/l IBA) | transformation efficiency (high concentration of IBA, 3 to 5 mg/l, in the medium) | transformation efficiency (soybean hypocotyl and cotyledon explants, medium with 1 mg/l IBA compared to no auxin) | transformation efficiency (NAA 1 mg/l in the medium) | transformation efficiency compared to control with no auxin (1 mg/l NAA) | transgenic roots obtained from hypocotyl explants (infected explants cultured and selected in medium containing 1 mg/l NAA)
1 | O=C(O)CCCc1c[nH]c2ccccc12 [IBA, indole-3-butyric acid] | 1-5 | doubled | dramatically increased | similar |  |  | 
2 | O=C(O)Cc1cccc2ccccc12 [NAA, napthalene acetic acid] |  |  |  |  | dramatically increased | doubled | more than 20
